Laboratory results published in the supplement of paper PMC10307832.

What was measured:
Experiment in all cases: relative viability (nuclei count vs DMSO), 5 days (fraction); higher = more cells survive
Vandetanib + Linsitinib = compound: COc1cc2/c(=N/c3ccc(Br)cc3F)nc[nH]c2cc1OCC1CCN(C)CC1 [Vandetanib] + C[C@]1(O)C[C@@H](c2nc(-c3ccc4ccc(-c5ccccc5)nc4c3)c3c(N)nccn32)C1 [Linsitinib] (partner 1 µM)
Procedure, shortened: (§1)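 For relative viability, nuclei counts in treated wells were divided by those in vehicle wells. Lung cancer cell lines had been pin-tool dosed in 1536-well plates the day after seeding and cultured for 5 days, then fixed and stained in one step (final 0.05% Triton X-100, 1% formaldehyde, 1 ug/ml Hoechst) and imaged at 4×. Doses were one drug alone or a fixed anchor-drug dose plus five library-drug doses (not always all listed) in √10 steps, and values are duplicate-plate medians.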

NVP-TAE684 + Palbociclib = compound: COc1cc(N2CCC(N3CCN(C)CC3)CC2)ccc1Nc1ncc(Cl)c(Nc2ccccc2S(=O)(=O)C(C)C)n1 [NVP-TAE684] + CC(=O)c1c(C)c2cnc(Nc3ccc(N4CCNCC4)cn3)nc2n(C2CCCC2)c1=O [Palbociclib] (partner 0.5 µM)
Procedure, shortened: as §1

Vandetanib + Bortezomib = compound: COc1cc2/c(=N/c3ccc(Br)cc3F)nc[nH]c2cc1OCC1CCN(C)CC1 [Vandetanib] + CC(C)C[C@H](NC(=O)[C@H](Cc1ccccc1)NC(=O)c1cnccn1)B(O)O [Bortezomib] (partner 0.002 µM)
Procedure, shortened: as §1

[1] = compound: C1=CC=C2C(=C1)N=C(S2)C(C#N)C3=NC(=NC=C3)NCCC4=CN=CC=C4 + Nc1nc2[nH]cc(CCc3ccc(C(=O)N[C@@H](CCC(=O)O)C(=O)O)cc3)c2c(=O)[nH]1 [Pemetrexed] (partner 0.2 µM)
Procedure, shortened: as §1

A-427
relative viability (Vandetanib + Linsitinib; first compound 0.02 µM): 1.05 | relative viability (Vandetanib + Linsitinib; first compound 0.06325 µM): 1.05 | relative viability (Vandetanib + Linsitinib; first compound 0.2 µM): 1.11 | relative viability (Vandetanib + Linsitinib; first compound 0.6325 µM): 1.04 | relative viability (Vandetanib + Linsitinib; first compound 2 µM): 1.12 | relative viability (NVP-TAE684 + Palbociclib; first compound 0.2 µM): 0.539 | relative viability (NVP-TAE684 + Palbociclib; first compound 0.6325 µM): 0.527 | relative viability (NVP-TAE684 + Palbociclib; first compound 2 µM): 0.431 | relative viability (Vandetanib + Bortezomib; first compound 0.02 µM): 0.887 | relative viability (Vandetanib + Bortezomib; first compound 0.06325 µM): 0.99 | relative viability (Vandetanib + Bortezomib; first compound 0.2 µM): 1.04 | relative viability (Vandetanib + Bortezomib; first compound 0.6325 µM): 1.02 | relative viability (Vandetanib + Bortezomib; first compound 2 µM): 0.961 | relative viability ([1]; first compound 0.005 µM): 0.874 | relative viability ([1]; first compound 0.01581 µM): 0.94 | relative viability ([1]; first compound 0.05 µM): 0.995 | relative viability ([1]; first compound 0.1581 µM): 1.1 | relative viability ([1]; first compound 0.5 µM): 0.975

NCI-H1755
relative viability (Vandetanib + Linsitinib; first compound 0.02 µM): 0.985 | relative viability (Vandetanib + Linsitinib; first compound 0.06325 µM): 0.939 | relative viability (Vandetanib + Linsitinib; first compound 0.2 µM): 0.922 | relative viability (Vandetanib + Linsitinib; first compound 0.6325 µM): 0.974 | relative viability (Vandetanib + Linsitinib; first compound 2 µM): 0.936 | relative viability (NVP-TAE684 + Palbociclib; first compound 0.2 µM): 0.441 | relative viability (NVP-TAE684 + Palbociclib; first compound 0.6325 µM): 0.472 | relative viability (NVP-TAE684 + Palbociclib; first compound 2 µM): 0.401 | relative viability (Vandetanib + Bortezomib; first compound 0.02 µM): 0.998 | relative viability (Vandetanib + Bortezomib; first compound 0.06325 µM): 1.04 | relative viability (Vandetanib + Bortezomib; first compound 0.2 µM): 1.07 | relative viability (Vandetanib + Bortezomib; first compound 0.6325 µM): 1 | relative viability (Vandetanib + Bortezomib; first compound 2 µM): 0.959 | relative viability ([1]; first compound 0.005 µM): 0.456 | relative viability ([1]; first compound 0.01581 µM): 0.466 | relative viability ([1]; first compound 0.05 µM): 0.413 | relative viability ([1]; first compound 0.1581 µM): 0.441 | relative viability ([1]; first compound 0.5 µM): 0.424

ABC-1
relative viability (Vandetanib + Linsitinib; first compound 0.02 µM): 1.03 | relative viability (Vandetanib + Linsitinib; first compound 0.06325 µM): 0.805 | relative viability (Vandetanib + Linsitinib; first compound 0.2 µM): 1.02 | relative viability (Vandetanib + Linsitinib; first compound 0.6325 µM): 0.849 | relative viability (Vandetanib + Linsitinib; first compound 2 µM): 0.598 | relative viability (NVP-TAE684 + Palbociclib; first compound 0.2 µM): 0.635 | relative viability (NVP-TAE684 + Palbociclib; first compound 0.6325 µM): 0.759 | relative viability (NVP-TAE684 + Palbociclib; first compound 2 µM): 0.363 | relative viability (Vandetanib + Bortezomib; first compound 0.02 µM): 0.304 | relative viability (Vandetanib + Bortezomib; first compound 0.06325 µM): 0.3 | relative viability (Vandetanib + Bortezomib; first compound 0.2 µM): 0.287 | relative viability (Vandetanib + Bortezomib; first compound 0.6325 µM): 0.406 | relative viability (Vandetanib + Bortezomib; first compound 2 µM): 0.244

NCI-H1793
relative viability (Vandetanib + Linsitinib; first compound 0.02 µM): 0.87 | relative viability (Vandetanib + Linsitinib; first compound 0.06325 µM): 0.74 | relative viability (Vandetanib + Linsitinib; first compound 0.2 µM): 0.819 | relative viability (Vandetanib + Linsitinib; first compound 0.6325 µM): 0.897 | relative viability (Vandetanib + Linsitinib; first compound 2 µM): 0.587 | relative viability (NVP-TAE684 + Palbociclib; first compound 0.2 µM): 0.297 | relative viability (NVP-TAE684 + Palbociclib; first compound 0.6325 µM): 0.302 | relative viability (NVP-TAE684 + Palbociclib; first compound 2 µM): 0.239 | relative viability ([1]; first compound 0.01581 µM): 0.799 | relative viability ([1]; first compound 0.05 µM): 0.851 | relative viability ([1]; first compound 0.1581 µM): 1.07 | relative viability ([1]; first compound 0.5 µM): 1.1

NCI-H1563
relative viability (Vandetanib + Linsitinib; first compound 0.02 µM): 1.24 | relative viability (Vandetanib + Linsitinib; first compound 0.06325 µM): 1.06 | relative viability (Vandetanib + Linsitinib; first compound 0.2 µM): 1.18 | relative viability (Vandetanib + Linsitinib; first compound 0.6325 µM): 1.19 | relative viability (Vandetanib + Linsitinib; first compound 2 µM): 1.11 | relative viability (Vandetanib + Bortezomib; first compound 0.02 µM): 0.821 | relative viability (Vandetanib + Bortezomib; first compound 0.06325 µM): 0.807 | relative viability (Vandetanib + Bortezomib; first compound 0.2 µM): 1.12 | relative viability (Vandetanib + Bortezomib; first compound 0.6325 µM): 0.797 | relative viability (Vandetanib + Bortezomib; first compound 2 µM): 0.845 | relative viability ([1]; first compound 0.005 µM): 0.751 | relative viability ([1]; first compound 0.01581 µM): 0.728 | relative viability ([1]; first compound 0.05 µM): 0.696 | relative viability ([1]; first compound 0.1581 µM): 0.779 | relative viability ([1]; first compound 0.5 µM): 0.764
